Test results from patent publication US12384771B2, “Pleuromutilin derivative containing thiazole-pyridine benzyl quaternary ammonium salt side chain and preparation method and use thereof” (SHAANXI UNIVERSITY OF SCIENCE AND TECHNOLOGY, priority 2022, dated 2025).
≈ marks a conversion by molar mass, not a printed value. Counter-ions that a name gives are not always drawn. Like-named read-outs stand apart in the source and are kept apart here.

Columns and labels:
Assay in all cases: MIC, microbroth dilution, standard strains
Assay type in all cases: cell-based
[1] = system: Staphylococcus aureus ATCC 25923
Experimental: (§1) The minimum inhibitory concentration (MIC) of the pleuromutilin derivative containing thiazole-pyridine benzyl quaternary ammonium salt side chain was tested with moxifloxacin as a positive control (purchased from Shanghai Macklin Biochemical Technology Co., Ltd.) using a microbroth dilution method.
(§2) Standard strains include gram-positive bacteria: Staphylococcus epidermidis ATCC 12228, Staphylococcus aureus ATCC 29213, ATCC 25923 and methicillin-resistant Staphylococcus aureus ATCC 33591; gram-negative bacteria: Salmonella ATCC 14028, Acinetobacter baumannii ATCC 19606, Escherichia coli ATCC 25922 and CMCC 44103, all the strains were purchased from the American Type Culture Collection.

[2] = system: Acinetobacter baumannii ATCC 19606
Experimental: as §1, §2

[3] = system: Escherichia coli ATCC 25922
Experimental: as §1, §2

[4] = system: Escherichia coli CMCC 44103
Experimental: as §1, §2

[5] = system: Staphylococcus aureus ATCC 29213
Experimental: as §1, §2

[6] = system: Staphylococcus epidermidis ATCC 12228
Experimental: as §1, §2

[7] = system: methicillin-resistant Staphylococcus aureus ATCC 33591
Experimental: as §1, §2

[8] = system: Salmonella ATCC 14028
Experimental: as §1, §2

[9] = ATCC25923, read-out: Minimum inhibitory concentration
[10] = ATCC19606, read-out: Minimum inhibitory concentration
[11] = ATCC25922, read-out: Minimum inhibitory concentration
[12] = CMCC44103, read-out: Minimum inhibitory concentration
[13] = ATCC29213, read-out: Minimum inhibitory concentration
[14] = ATCC12228, read-out: Minimum inhibitory concentration
[15] = ATCC33591, read-out: Minimum inhibitory concentration
[16] = ATCC14028, read-out: Minimum inhibitory concentration
[17] = ATCC25923, ATCC 25923, read-out: Minimum inhibitory concentration
[18] = ATCC19606, ATCC 19606, read-out: Minimum inhibitory concentration
[19] = ATCC25922, ATCC 25922, read-out: Minimum inhibitory concentration
[20] = CMCC44103, CMCC 44103, read-out: Minimum inhibitory concentration
[21] = ATCC29213, ATCC 29213, read-out: Minimum inhibitory concentration
[22] = ATCC12228, ATCC 12228, read-out: Minimum inhibitory concentration
[23] = ATCC33591, ATCC 33591, read-out: Minimum inhibitory concentration
[24] = ATCC14028, ATCC 14028, read-out: Minimum inhibitory concentration

Structure (SMILES) | MIC [1, 17] [µg/mL] | MIC [2, 18] [µg/mL] | MIC [3, 19] [µg/mL] | MIC [4, 20] [µg/mL] | MIC [5, 21] [µg/mL] | MIC [6, 22] [µg/mL] | MIC [7, 23] [µg/mL] | MIC [8, 24] [µg/mL] | MIC [1, 9] [µg/mL] | MIC [2, 10] [µg/mL] | MIC [3, 11] [µg/mL] | MIC [4, 12] [µg/mL] | MIC [5, 13] [µg/mL] | MIC [6, 14] [µg/mL] | MIC [7, 15] [µg/mL] | MIC [8, 16] [µg/mL]
C=C[C@]1(C)C[C@@H](OC(=O)CSC(C)(C)CNC(=O)[C@H](N)C(C)C)[C@]2(C)[C@H](C)CC[C@]3(CCC(=O)[C@H]32)[C@@H](C)[C@@H]1O [Valnemulin, valnemulin, reference compound] |  |  |  |  |  |  |  |  | 4 (≈ 7.08 µM) | 2 (≈ 3.54 µM) | 16 (≈ 28.3 µM) | 64 (≈ 113 µM) | 2 (≈ 3.54 µM) | 64 (≈ 113 µM) | > 128 | 64 (≈ 113 µM)
C=C[C@]1(C)C[C@@H](OC(=O)CSc2nc(-c3cc[n+](Cc4ccc(OC(F)(F)F)cc4)cc3)cs2)[C@]2(C)[C@H](C)CC[C@]3(CCC(=O)[C@H]32)[C@@H](C)[C@@H]1O [Compound 5, 1-(4-(trifluoromethoxy)benzyl)-4-(2-(8-hydroxy-4,7,9,12-tetramethyl-3-oxo-7-vinyldecahydro-4,9a-propancyclopent[8]cyclen-5-yl)oxy)-2-oxoethyl)thiazol-4-yl)pyridyl bromide salt] | 32 | 8 | 2 | 32 | 2 | 2 | 2 | 4 |  |  |  |  |  |  |  | 
C=C[C@]1(C)C[C@@H](OC(=O)CSc2nc(-c3cc[n+](Cc4ccccc4)cc3)cs2)[C@]2(C)[C@H](C)CC[C@]3(CCC(=O)[C@H]32)[C@@H](C)[C@@H]1O [Compound 1, 1-Benzyl-4-(2-(((8-hydroxy-4,7,9,12-tetramethyl-3-oxy-7-vinyldecahydro-4,9a-propanecyclopenta[8]cyclen-5-yl)oxy)-2-oxoethyl)thiothiazol-4-yl)pyridyl bromide salt] |  |  |  |  |  |  |  |  | 0.5 | 4 |  | 0.25 | 0.125 | 2 | 1 | 
C=C[C@]1(C)C[C@@H](OC(=O)CSc2nc(-c3cc[n+](Cc4ccc(C#N)cc4)cc3)cs2)[C@]2(C)[C@H](C)CC[C@]3(CCC(=O)[C@H]32)[C@@H](C)[C@@H]1O [Compound 8, 1-(4-(cyano)benzyl)-4-(2-(8-hydroxy-4,7,9,12-tetramethyl-3-oxo-7-vinyldecahydro-4,9a-propancyclopent[8]cyclen-5-yl)oxy)-2-oxoethyl)thiazol-4-yl)pyridyl bromide salt] |  |  |  |  |  |  |  |  | 1 | 32 | 2 | 8 | 0.125 | 8 | 64 | 32
C=C[C@]1(C)C[C@@H](OC(=O)CSc2nc(-c3cc[n+](Cc4ccc(C(C)(C)C)cc4)cc3)cs2)[C@]2(C)[C@H](C)CC[C@]3(CCC(=O)[C@H]32)[C@@H](C)[C@@H]1O [Compound 6, 1-(4-(tert-butyl)benzyl)-4-(2-(8-hydroxy-4,7,9,12-tetramethyl-3-oxo-7-vinyldecahydro-4,9a-propancyclopent[8]cyclen-5-yl)oxy)-2-oxoethyl)thiazol-4-yl)pyridyl bromide salt] | 0.5 | 2 | 2 | 2 | 0.25 | 2 | 1 | 2 |  |  |  |  |  |  |  | 
C=C[C@]1(C)C[C@@H](OC(=O)CSc2nc(-c3cc[n+](Cc4ccc(C(F)(F)F)cc4)cc3)cs2)[C@]2(C)[C@H](C)CC[C@]3(CCC(=O)[C@H]32)[C@@H](C)[C@@H]1O [Compound 3, 1-(4-(trifluoromethyl)benzyl)-4-(2-(8-hydroxy-4,7,9,12-tetramethyl-3-oxo-7-vinyldecahydro-4,9a-propancyclopent[8]cyclen-5-yl)oxy)-2-oxoethyl)thiazol-4-yl)pyridyl bromide salt] | 1 | 2 | 1 | 2 | 0.25 | 1 | 2 | 2 |  |  |  |  |  |  |  | 

The next lines start with results.

MIC [1, 17] [µg/mL] | MIC [2, 18] [µg/mL] | MIC [3, 19] [µg/mL] | MIC [4, 20] [µg/mL] | MIC [5, 21] [µg/mL] | MIC [6, 22] [µg/mL] | MIC [7, 23] [µg/mL] | MIC [8, 24] [µg/mL] | Structure (SMILES) | MIC [1, 9] [µg/mL] | MIC [2, 10] [µg/mL] | MIC [3, 11] [µg/mL] | MIC [4, 12] [µg/mL] | MIC [5, 13] [µg/mL] | MIC [6, 14] [µg/mL] | MIC [7, 15] [µg/mL] | MIC [8, 16] [µg/mL]
128 | 8 | 16 | 32 | 64 | 32 | 64 | 16 | C=C[C@]1(C)C[C@@H](OC(=O)CSc2nc(-c3cc[n+](Cc4cc(F)cc(F)c4)cc3)cs2)[C@]2(C)[C@H](C)CC[C@]3(CCC(=O)[C@H]32)[C@@H](C)[C@@H]1O [Compound 15, 1-(3,5-difluorobenzyl)-4-(2-(8-hydroxy-4,7,9,12-tetramethyl-3-oxo-7-vinyldecahydro-4,9a-propancyclopent[8]cyclen-5-yl)oxy)-2-oxoethyl)thiazol-4-yl)pyridyl bromide salt] |  |  |  |  |  |  |  | 
64 | 8 | 32 | 32 | 128 | 128 | 64 | 16 | C=C[C@]1(C)C[C@@H](OC(=O)CSc2nc(-c3cc[n+](Cc4cc(C)cc(C)c4)cc3)cs2)[C@]2(C)[C@H](C)CC[C@]3(CCC(=O)[C@H]32)[C@@H](C)[C@@H]1O [Compound 13, 1-(3,5-dimethylbenzyl)-4-(2-(8-hydroxy-4,7,9,12-tetramethyl-3-oxo-7-vinyldecahydro-4,9a-propancyclopent[8]cyclen-5-yl)oxy)-2-oxoethyl)thiazol-4-yl)pyridyl bromide salt] |  |  |  |  |  |  |  | 
1 | 16 | 2 | 1 | 1 | 2 | 2 | 1 | C=C[C@]1(C)C[C@@H](OC(=O)CSc2nc(-c3cc[n+](Cc4ccc(F)cc4)cc3)cs2)[C@]2(C)[C@H](C)CC[C@]3(CCC(=O)[C@H]32)[C@@H](C)[C@@H]1O [Compound 9, 1-(4-fluorobenzyl)-4-(2-(8-hydroxy-4,7,9,12-tetramethyl-3-oxo-7-vinyldecahydro-4,9a-propancyclopent[8]cyclen-5-yl)oxy)-2-oxoethyl)thiazol-4-yl)pyridyl bromide salt] |  |  |  |  |  |  |  | 
1 | 2 | 1 | 1 | 0.5 | 2 | 2 | 2 | C=C[C@]1(C)C[C@@H](OC(=O)CSc2nc(-c3cc[n+](Cc4ccc(-c5ccccc5)cc4)cc3)cs2)[C@]2(C)[C@H](C)CC[C@]3(CCC(=O)[C@H]32)[C@@H](C)[C@@H]1O [Compound 12, 1-([1,1′-biphenyl]-4-ylmethyl)-4-(2-(8-hydroxy-4,7,9,12-tetramethyl-3-oxo-7-vinyldecahydro-4,9a-propancyclopent[8]cyclen-5-yl)oxy)-2-oxoethyl)thiazol-4-yl)pyridyl bromide salt] |  |  |  |  |  |  |  | 
1 | 2 | 2 | 0.5 | 0.5 | 2 | 2 | 4 | C=C[C@]1(C)C[C@@H](OC(=O)CSc2nc(-c3cc[n+](Cc4ccc(Br)cc4)cc3)cs2)[C@]2(C)[C@H](C)CC[C@]3(CCC(=O)[C@H]32)[C@@H](C)[C@@H]1O [Compound 11, 1-(4-bromobenzyl)-4-(2-(8-hydroxy-4,7,9,12-tetramethyl-3-oxo-7-vinyldecahydro-4,9a-propancyclopent[8]cyclen-5-yl)oxy)-2-oxoethyl)thiazol-4-yl)pyridyl bromide salt] |  |  |  |  |  |  |  | 
64 | 8 | 32 | 8 | 128 | 64 | 64 | 16 | C=C[C@]1(C)C[C@@H](OC(=O)CSc2nc(-c3cc[n+](Cc4cc(OC)cc(OC)c4)cc3)cs2)[C@]2(C)[C@H](C)CC[C@]3(CCC(=O)[C@H]32)[C@@H](C)[C@@H]1O [Compound 14, 1-(3,5-dimethoxybenzyl)-4-(2-(8-hydroxy-4,7,9,12-tetramethyl-3-oxo-7-vinyldecahydro-4,9a-propancyclopent[8]cyclen-5-yl)oxy)-2-oxoethyl)thiazol-4-yl)pyridyl bromide salt] |  |  |  |  |  |  |  | 
2 | 2 | 0.5 | 1 | 0.125 | 2 | 2 | 2 | C=C[C@]1(C)C[C@@H](OC(=O)CSc2nc(-c3cc[n+](Cc4ccc(Cl)cc4)cc3)cs2)[C@]2(C)[C@H](C)CC[C@]3(CCC(=O)[C@H]32)[C@@H](C)[C@@H]1O [Compound 10, 1-(4-chlorobenzyl)-4-(2-(8-hydroxy-4,7,9,12-tetramethyl-3-oxo-7-vinyldecahydro-4,9a-propancyclopent[8]cyclen-5-yl)oxy)-2-oxoethyl)thiazol-4-yl)pyridyl bromide salt] |  |  |  |  |  |  |  | 
